In patent US10392368B2, “Pyrazolo and triazolo bicyclic compounds as JAK kinase inhibitors” (THERAVANCE BIOPHARMA R&D IP, LLC, priority 2017, dated 2019):

Columns and labels:
JAK1 = target: T1, JAK1 (Homo sapiens, UniProt P23458); experiment: Biochemical JAK1 kinase assay (LanthaScreen); settings: for Ki: read-out: JAK 1 (pKi) (converted)
T1 construct: GST; purchased Life Technologies
Procedure, shortened: (§1)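 Compounds were preincubated with the GST-tagged kinase and GFP-labelled STAT1 peptide for one hour before ATP initiated a one-hour reaction at ambient temperature. Phosphorylation was quantified by TR-FRET with a Tb-labelled pTyr701 antibody. Ki values were derived from IC50 using Cheng-Prusoff.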

[1] = test system: IL-2 stimulated pSTAT5 in Tall-1 T cells; experiment: Cellular JAK3 potency assay: inhibition of IL-2 stimulated pSTAT5 in Tall-1 T cells; assay type: cell-based, human; settings: for IC50: Homo sapiens, TALL-1, IL-2 stimulated pSTAT5, Tall-1 T cells, read-out: Tall-1 (pIC50) (converted); for Tall-1 (pIC50): IL-2 stimulated pSTAT5, Tall-1 T cells
Procedure, shortened: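 Tall-1 human T cells (45,000/well) in phenol red-free DMEM with 10% FBS were preincubated with compound 1 h at 37 °C, then stimulated with IL-2 (final 300 ng/ml) for 30 min. Lysate pSTAT5 read by AlphaLisa; IC50 from inhibition curves, reported as pIC50 (mean±SD).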

JAK3 = target: T2, JAK3 (Homo sapiens, UniProt P52333); experiment: Biochemical JAK3 kinase assay (LanthaScreen); design: GST; purchased Life Technologies; settings: for Ki: read-out: JAK 3 (pKi) (converted); for JAK3 (pKi)-JAK1 (pKi): selectivity JAK3 over JAK1, difference of pKi
T2 sequence (P52333 1-1124): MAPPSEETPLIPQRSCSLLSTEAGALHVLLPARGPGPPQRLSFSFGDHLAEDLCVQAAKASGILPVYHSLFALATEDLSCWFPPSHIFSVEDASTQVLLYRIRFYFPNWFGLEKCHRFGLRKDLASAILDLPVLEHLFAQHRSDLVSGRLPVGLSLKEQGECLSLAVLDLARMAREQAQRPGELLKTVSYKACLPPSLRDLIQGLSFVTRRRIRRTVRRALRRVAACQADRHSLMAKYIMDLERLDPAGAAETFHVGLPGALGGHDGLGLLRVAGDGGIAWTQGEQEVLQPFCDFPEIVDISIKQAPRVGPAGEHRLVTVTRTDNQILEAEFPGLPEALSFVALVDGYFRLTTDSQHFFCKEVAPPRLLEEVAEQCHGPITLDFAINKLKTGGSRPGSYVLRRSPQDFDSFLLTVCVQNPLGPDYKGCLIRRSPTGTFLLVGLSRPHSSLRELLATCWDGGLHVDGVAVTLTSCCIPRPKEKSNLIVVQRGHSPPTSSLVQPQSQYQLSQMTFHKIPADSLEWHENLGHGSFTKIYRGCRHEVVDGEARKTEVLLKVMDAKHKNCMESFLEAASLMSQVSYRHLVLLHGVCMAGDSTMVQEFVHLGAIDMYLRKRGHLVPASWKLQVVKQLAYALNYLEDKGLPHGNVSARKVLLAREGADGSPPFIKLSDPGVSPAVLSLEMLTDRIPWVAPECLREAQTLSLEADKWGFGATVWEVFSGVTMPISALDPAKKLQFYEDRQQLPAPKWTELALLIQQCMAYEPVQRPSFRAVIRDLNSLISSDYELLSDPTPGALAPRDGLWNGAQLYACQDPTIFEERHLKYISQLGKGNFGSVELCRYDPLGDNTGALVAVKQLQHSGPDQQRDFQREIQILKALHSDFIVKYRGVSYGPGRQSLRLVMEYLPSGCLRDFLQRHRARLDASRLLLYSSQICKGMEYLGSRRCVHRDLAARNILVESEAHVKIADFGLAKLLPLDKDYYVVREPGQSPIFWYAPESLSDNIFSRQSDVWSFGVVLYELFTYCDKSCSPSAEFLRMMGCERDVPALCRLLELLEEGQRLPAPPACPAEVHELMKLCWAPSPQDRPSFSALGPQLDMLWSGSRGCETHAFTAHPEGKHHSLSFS
Procedure, shortened: as §1

T1 sequence (P23458 whole entry): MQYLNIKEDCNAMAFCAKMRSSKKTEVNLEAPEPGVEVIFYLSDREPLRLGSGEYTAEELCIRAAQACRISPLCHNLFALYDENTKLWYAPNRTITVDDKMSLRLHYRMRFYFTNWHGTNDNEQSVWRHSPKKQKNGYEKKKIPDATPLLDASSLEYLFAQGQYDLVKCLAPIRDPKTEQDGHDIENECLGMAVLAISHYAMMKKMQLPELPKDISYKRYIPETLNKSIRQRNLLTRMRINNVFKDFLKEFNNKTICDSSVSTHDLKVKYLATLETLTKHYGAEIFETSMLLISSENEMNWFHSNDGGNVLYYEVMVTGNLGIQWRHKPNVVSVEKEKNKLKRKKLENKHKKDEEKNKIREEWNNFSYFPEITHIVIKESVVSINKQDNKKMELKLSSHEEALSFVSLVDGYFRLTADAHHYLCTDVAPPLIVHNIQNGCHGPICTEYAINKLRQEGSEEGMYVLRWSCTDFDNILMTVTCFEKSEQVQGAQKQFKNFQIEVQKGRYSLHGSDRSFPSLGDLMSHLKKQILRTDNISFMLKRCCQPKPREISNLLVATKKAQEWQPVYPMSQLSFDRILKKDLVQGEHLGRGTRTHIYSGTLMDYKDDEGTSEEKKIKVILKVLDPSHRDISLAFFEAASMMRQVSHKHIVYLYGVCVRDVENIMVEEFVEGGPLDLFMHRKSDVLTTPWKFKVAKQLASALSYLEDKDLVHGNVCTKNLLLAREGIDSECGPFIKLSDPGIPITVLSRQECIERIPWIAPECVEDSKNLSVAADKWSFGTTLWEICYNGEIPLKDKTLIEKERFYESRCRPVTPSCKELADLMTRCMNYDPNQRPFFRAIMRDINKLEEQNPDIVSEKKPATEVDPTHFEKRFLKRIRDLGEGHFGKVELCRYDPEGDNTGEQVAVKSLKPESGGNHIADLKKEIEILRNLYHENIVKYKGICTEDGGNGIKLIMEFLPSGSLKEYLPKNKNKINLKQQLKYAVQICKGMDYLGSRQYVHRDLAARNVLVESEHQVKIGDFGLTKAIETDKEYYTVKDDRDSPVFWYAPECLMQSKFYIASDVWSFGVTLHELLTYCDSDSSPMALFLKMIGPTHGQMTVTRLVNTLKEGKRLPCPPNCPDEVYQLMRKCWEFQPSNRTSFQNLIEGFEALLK

Structure (SMILES): C=CC(=O)N1CCC(Oc2cc(-c3ccc(O)cc3)cc3[nH]ncc23)C(F)(F)C1 (stereo not drawn) [Compound 6-8]
- Ki (JAK1): 10 to 100 nM
- IC50 [1]: < 31.6 nM
- Ki (JAK3): < 0.1 nM
- JAK3 (pKi)-JAK1 (pKi) (JAK3): B (a value of 2.3 to 3)

Structure (SMILES): C=CC(=O)N1CCC(Oc2cc(-c3ccc(O)cc3)nc3[nH]ncc23)CC1 [Compound 6-11]
- Ki (JAK1): > 100 nM
- IC50 [1]: 31.6 to 200 nM
- Ki (JAK3): < 0.1 nM
- JAK3 (pKi)-JAK1 (pKi) (JAK3): A (a value of 3 or above)

Structure (SMILES): C=CC(=O)N1CCC(Oc2nc(-c3ccc(O)cc3)nc3[nH]ncc23)CC1 [Compound 6-12]
- Ki (JAK1): > 100 nM
- IC50 [1]: 31.6 to 200 nM
- Ki (JAK3): 0.1 to 1 nM
- JAK3 (pKi)-JAK1 (pKi) (JAK3): A (a value of 3 or above)

Structure (SMILES): C=CC(=O)N1CCC(Oc2cc(-c3ccc(O)c(F)c3)cc3[nH]ncc23)CC1 [Compound 6-14]
- Ki (JAK1): 10 to 100 nM
- IC50 [1]: < 31.6 nM
- Ki (JAK3): < 0.1 nM
- JAK3 (pKi)-JAK1 (pKi) (JAK3): B (a value of 2.3 to 3)

Structure (SMILES): CN(C)C/C=C/C(=O)N1CCC(Oc2cc(-c3ccc(O)c(Cl)c3)cc3[nH]ncc23)CC1 [Compound 6-19]
- Ki (JAK1): 10 to 100 nM
- IC50 [1]: 31.6 to 200 nM
- Ki (JAK3): 0.1 to 1 nM
- JAK3 (pKi)-JAK1 (pKi) (JAK3): B (a value of 2.3 to 3)

Structure (SMILES): C=CC(=O)N1CCC(Oc2nc(-c3ccc(O)c(Cl)c3)nc3[nH]ncc23)CC1 [Compound 6-22]
- Ki (JAK1): > 100 nM
- IC50 [1]: 200 to 1000 nM
- Ki (JAK3): 0.1 to 1 nM
- JAK3 (pKi)-JAK1 (pKi) (JAK3): A (a value of 3 or above)

Structure (SMILES): C=CC(=O)N1CCC(Oc2nc(-c3ccc(O)c(F)c3)nc3[nH]ncc23)CC1 [Compound 6-23]
- Ki (JAK1): > 100 nM
- IC50 [1]: 200 to 1000 nM
- Ki (JAK3): 0.1 to 1 nM
- JAK3 (pKi)-JAK1 (pKi) (JAK3): A (a value of 3 or above)

Structure (SMILES): CN(C)C/C=C/C(=O)N1CCC(C)(Nc2cc(-c3ccc(O)cc3)cc3[nH]ncc23)CC1 [Compound 7-1]
- JAK 1 (pKi) (JAK1): E (a pKi value of 7 or below (Ki of 100 nM or above))
- Tall-1 (pIC50) [1]: C (a pIC50 value between 6 and 6.7 (IC50 between 1 μM and 200 nM))
- JAK 3 (pKi) (JAK3): B (a pKi value between 9 and 10 (Ki between 1 nM and 0.1 nM))
- JAK3 (pKi)-JAK1 (pKi) (JAK3): A (a value of 3 or above)

Structure (SMILES): CN(C)C/C=C/C(=O)N1CCC(Nc2cc(-c3ccc(O)cc3)cc3[nH]ncc23)C(F)(F)C1 (stereo not drawn) [Compound 7-5]
- Ki (JAK1): 10 to 100 nM
- IC50 [1]: 31.6 to 200 nM
- Ki (JAK3): 0.1 to 1 nM
- JAK3 (pKi)-JAK1 (pKi) (JAK3): C (a value of 1.8 to 2.3)

Structure (SMILES): C=CC(=O)N1CCC(Nc2cc(-c3ccc(O)cc3)cc3[nH]ncc23)C(F)(F)C1 (stereo not drawn) [Compound 7-6]
- JAK 1 (pKi) (JAK1): D (a pKi value between 7 and 8 (Ki between 100 nM and 10 nM))
- Tall-1 (pIC50) [1]: A (a pIC50 value≥7.5 (IC50≤32 nM))
- JAK 3 (pKi) (JAK3): A (a pKi value≥10 (Ki≤0.1 nM))
- JAK3 (pKi)-JAK1 (pKi) (JAK3): B (a value of 2.3 to 3)

Structure (SMILES): C=CC(=O)N1CCCC(Oc2cc(-c3ccc(O)cc3)nc3[nH]ncc23)C1 (stereo not drawn) [Compound 8-6]
- JAK 1 (pKi) (JAK1): E (a pKi value of 7 or below (Ki of 100 nM or above))
- Tall-1 (pIC50) [1]: B (a pIC50 value between 6.7 (included) and 7.5 (IC50 between 200 nM and 32 nM))
- JAK 3 (pKi) (JAK3): B (a pKi value between 9 and 10 (Ki between 1 nM and 0.1 nM))
- JAK3 (pKi)-JAK1 (pKi) (JAK3): A (a value of 3 or above)

Structure (SMILES): C=CC(=O)N1CCCC(Oc2cc(-c3ccc(O)c(F)c3)nc3[nH]ncc23)C1 (stereo not drawn) [Compound 8-8]
- JAK 1 (pKi) (JAK1): E (a pKi value of 7 or below (Ki of 100 nM or above))
- Tall-1 (pIC50) [1]: B (a pIC50 value between 6.7 (included) and 7.5 (IC50 between 200 nM and 32 nM))
- JAK 3 (pKi) (JAK3): A (a pKi value≥10 (Ki≤0.1 nM))
- JAK3 (pKi)-JAK1 (pKi) (JAK3): A (a value of 3 or above)
